Source: patent publication US4568490A, “Aminopropylaminobleomycin derivatives and process for preparation thereof” (Zaidan Hojin Biseibutsu Kagaku Kenkyu Kai, priority 1981, dated 1986)

Legend:
[1] = system: Hela S3 cells; experiment: Growth inhibitory activity against Hela S3 cells; format: cell-based; details: Cu-free form; Hela S3, 3 days incubation with compound
Method: The percentage growth inhibition was calculated using the equation: […] wherein A is the ultimate number of cells on the third day from the addition of a test sample, B is the ultimate number of cells in the control (without the addition of test sample), and C is the number of cells on the day of addition of the test sample.

[2] = system: ICR strain mice; experiment: Pulmonary toxicity (pulmonary fibrosis) in mice, intraperitoneal injection; format: in vivo; details: 5 mg/kg i.p. once a day for 10 days; for Grade of pulmonary fibrosis, % / Incidence of pulmonary fibrosis, % / Incidence: number of mice suffering from pulmonary fibrosis / Grade: total score of pulmonary fibrosis/total number of test animal: autopsy after 5 weeks; for Incidence: number of mice suffering from pulmonary fibrosis: affected/total mice; for Grade: total score of pulmonary fibrosis/total number of test animal: score 0-6 points; for Grade of pulmonary fibrosis, Ratio / Incidence of pulmonary fibrosis, Ratio: reference of the ratio not stated
Method: (3) Pulmonary toxicity (pulmonary fibrosis) in mice.
ICR strain mice (male; 15 weeks old; 9 mice per group) were used. Each mouse was administered with a daily dose of 5 mg/kg of the test sample by intraperitoneal injection, once a day, for 10 consecutive days. After completion of the predetermined administration, the mice were kept for 5 weeks under observation, then slaughtered, and autopsied to examine the incidence and grade of pulmonary fibrosis. The evaluation was made by comparing the number of administered mice suffering from pulmonary fibrosis and the grade of the disease.
In Tables 4A and 4B, the grade was numerically rated as follows:
1 point: Accumulation of exudate in pulmonary alveoli and fibrosis-like change in alveolar septum.
2 points: Fibrosis in several areas.
4 points: Scattered fibrosis.
6 points: Fibrosis in more than two-thirds of the total area.

[3] = system: Mycobacterium smegmatis ATCC 607; experiment: Antimicrobial activity, agar plate-cylinder method; format: cell-based; details: Cu-free form; bleomycin A2 (Cu-free form) standard assumed 1,000 mcg/mg
Method: (§1) The activity was assayed against the above test microorganisms by the method of agar plate-cylinder, assuming the potency of bleomycin A2 (Cu-free form), used as standard, to be 1,000 mcg/mg.

[4] = system: Lymphocytic leukemia P-388; experiment: In vivo antitumor activity, murine lymphocytic leukemia P-388; details: BDF1-SLC mice, i.p. transplant, once daily for 9 days, 30 days observation; T/C more than 130 effective
Method: The following data with respect to the testing of a group of the presently claimed substances in vivo according to a standard test method involving murine lymphocytic leukemia P-388 is presented to lend further assurance as to the utility of the compounds as inhibitors of mammalian tumors.
Lymphocytic leukemia P-388 cells (1×10^5 /0.2 ml) were transplanted intraperitoneally into male BDF1 -SLC mice (5 mice/group). Each of the compounds of this invention was diluted with physiological saline to various concentrations. Each dilution was administered at a dose of 0.1 ml/10 g of body weight once daily for 9 days, starting on the day after the day of the transplantation. The mice of the control group were administered physiological saline.
The average number of days that the group receiving the compound of this invention survived was calculated. The figure obtained was divided by the average number of survival days for the control group, and was multiplied by 100 (T/C (%)).
T/C value more than 130 was considered to be effective.

[5] = system: Bacillus subtilis; experiment: Antimicrobial activity, agar plate-cylinder method; format: cell-based; details: Cu-free form; bleomycin A2 (Cu-free form) standard assumed 1,000 mcg/mg
Method: (1) Antimicrobial activity against Mycobacterium smegmatis ATCC 697 and Bacillus subtilis.
as §1

SMILES	50% growth inhibition concentration (ID50) of Cu--free compound against cultured Hela cell [1]	Grade of pulmonary fibrosis, % [2]	Incidence of pulmonary fibrosis, % [2]	Incidence: number of mice suffering from pulmonary fibrosis [2]	Grade: total score of pulmonary fibrosis/total number of test animal [2]	Grade of pulmonary fibrosis, Ratio [2]	Incidence of pulmonary fibrosis, Ratio [2]	Antimicrobial potency of Cu--free compound, against Mycobacterium smegmatis ATCC 607 [3]	Max. T/C on Mouse Lymphocytic Leukemia P 388 [4]	Antimicrobial potency of Cu--free compound, against Bacillus subtilis [5]
Cc1c(N)nc(C(CC(N)=O)NCC(N)C(N)=O)nc1C(=O)NC(C(=O)NC(C)C(O)C(C)C(=O)NC(C(=O)NCCc1nc(-c2nc(C(=O)NCCCN3CCN(CCCNCC4CCCCCCC4)CC3)cs2)cs1)C(C)O)C(OC1OC(CO)C(O)C(O)C1OC1OC(CO)C(O)C(OC(N)=O)C1O)c1cnc[nH]1 (stereo not drawn) [compound 45, 3-[4-(3-Cyclooctylmethylaminopropyl)piperazin-l-yl]propylaminoBLM]	0.81 µg/mL	0%	0%	0/9	0/27	0.00	0.00	43000 mcg potency per mg	163%	15100 mcg potency per mg
Cc1c(N)nc(C(CC(N)=O)NCC(N)C(N)=O)nc1C(=O)NC(C(=O)NC(C)C(O)C(C)C(=O)NC(C(=O)NCCc1nc(-c2nc(C(=O)NCCC[N+](C)(C)CCC[N+](C)(C)CCCNCC3CCCCCCC3)cs2)cs1)C(C)O)C(OC1OC(CO)C(O)C(O)C1OC1OC(CO)C(O)C(OC(N)=O)C1O)c1cnc[nH]1 (centres unmarked) [Compound No. 42, 3-{N,N--Dimethyl-N--[3'-(N,N--dimethyl-N--(3"-cyclooctylmethylaminopropyl)amino)propyl]amino}propylaminoBLM]	0.51 µg/mL	0%	0%	0/9	0/27	0.00	0.00	26000 mcg potency per mg	177%	14600 mcg potency per mg
Cc1c(N)nc(C(CC(N)=O)NCC(N)C(N)=O)nc1C(=O)NC(C(=O)NC(C)C(O)C(C)C(=O)NC(C(=O)NCCc1nc(-c2nc(C(=O)NCCC[N+](C)(C)CCC[N+](C)(C)CCCN(Cc3ccccc3)Cc3ccccc3)cs2)cs1)C(C)O)C(OC1OC(CO)C(O)C(O)C1OC1OC(CO)C(O)C(OC(N)=O)C1O)c1cnc[nH]1 (centres unmarked) [Compound No. 41, 3-{N,N--Dimethyl-N--[3'-(N,N--dimethyl-N--(3"-dibenzylaminopropyl)amino)propyl]amino}propylaminoBLM]	0.66 µg/mL	0%	0%	0/9	0/27	0.00	0.00	16000 mcg potency per mg	184%	7100 mcg potency per mg
Cc1c(N)nc(C(CC(N)=O)NCC(N)C(N)=O)nc1C(=O)NC(C(=O)NC(C)C(O)C(C)C(=O)NC(C(=O)NCCc1nc(-c2nc(C(=O)NCCC[N+](C)(C)CCCNCC3CCCCCCC3)cs2)cs1)C(C)O)C(OC1OC(CO)C(O)C(O)C1OC1OC(CO)C(O)C(OC(N)=O)C1O)c1cnc[nH]1 (centres unmarked) [compound 36, 3-{N,N--Dimethyl-N--[3'-(cyclooctylmethylamino)propyl]amino}propylaminoBLM]	0.29 µg/mL	–	–	–	–	–	–	21840 mcg potency per mg	150%	20000 mcg potency per mg
Cc1c(N)nc(C(CC(N)=O)NCC(N)C(N)=O)nc1C(=O)NC(C(=O)NC(C)C(O)C(C)C(=O)NC(C(=O)NCCc1nc(-c2nc(C(=O)NCCCN(C)CCCNCC3CCCCCCC3)cs2)cs1)C(C)O)C(OC1OC(CO)C(O)C(O)C1OC1OC(CO)C(O)C(OC(N)=O)C1O)c1cnc[nH]1.Cl.Cl.Cl (centres unmarked) [Compound No. 22]	0.45 µg/mL	0%	0%	0/9	0/27	0.000	0.00	22860 mcg potency per mg	174%	12300 mcg potency per mg
Cc1c(N)nc(C(CC(N)=O)NCC(N)C(N)=O)nc1C(=O)NC(C(=O)NC(C)C(O)C(C)C(=O)NC(C(=O)NCCc1nc(-c2nc(C(=O)NCCCN(C)CCCNCc3c4ccccc4cc4ccccc34)cs2)cs1)C(C)O)C(OC1OC(CO)C(O)C(O)C1OC1OC(CO)C(O)C(OC(N)=O)C1O)c1cnc[nH]1 (centres unmarked) [compound 21, 3-{N--Methyl-N--[3'-(9-anthramethylamino)propyl]amino}propylaminoBLM]	0.80 µg/mL	–	–	–	–	–	–	13250 mcg potency per mg	148%	4504 mcg potency per mg
CCCC[N+](CCCC)(CCCNC(=O)c1csc(-c2csc(CCNC(=O)C(NC(=O)C(C)C(O)C(C)NC(=O)C(NC(=O)c3nc(C(CC(N)=O)NCC(N)C(N)=O)nc(N)c3C)C(OC3OC(CO)C(O)C(O)C3OC3OC(CO)C(O)C(OC(N)=O)C3O)c3cnc[nH]3)C(C)O)n2)n1)CCCN(Cc1ccccc1)Cc1ccccc1 (centres unmarked) [compound 38, 3-{N,N--Dibutyl-N--[3'-(dibenzylamino)propyl]amino}propylaminoBLM]	2.00 µg/mL	0%	0%	0/9	0/27	0.00	0.00	17910 mcg potency per mg	156%	530 mcg potency per mg
Cc1c(N)nc(C(CC(N)=O)NCC(N)C(N)=O)nc1C(=O)NC(C(=O)NC(C)C(O)C(C)C(=O)NC(C(=O)NCCc1nc(-c2nc(C(=O)NCCCN(CCCN(Cc3ccccc3)Cc3ccccc3)Cc3ccccc3)cs2)cs1)C(C)O)C(OC1OC(CO)C(O)C(O)C1OC1OC(CO)C(O)C(OC(N)=O)C1O)c1cnc[nH]1 (centres unmarked) [Compound No. 40, 3-{N--benzyl-N--[3'-(dibenzylamino)propyl]amino}propylaminoBLM]	1.90 µg/mL	–	–	–	–	–	–	4450 mcg potency per mg	154%	479 mcg potency per mg
